# Key:
# Type in all cases: cell-based
# streptococcus pneumoniae = test: In vitro antibacterial activity, standard agar dilution method, Streptococcus pneumoniae; settings: clinically separated strains
# Text: (§1) Strains for test: all the clinically separated strains below were purchased from public facilities.
# (§2) Methicillin-resistant Staphylococcus aureus (MRSA), methicillin-resistant Staphylococcus epidermidis (MRSE), methicillin-sensitive Staphylococcus aureus (MSSA), methicillin-sensitive Staphylococcus epidermidis (MSSE), Enterococcus faecalis (efa), Enterococcus faecium (efm), streptococcus pneumoniae. Obtained from: Qianfoshan Hospital, First People's Hospital of Yunnan Province, Renji Hospital of Shanghai, People's Hospital of Jilin Province, Southwest Hospital.
# (§3) some compounds of the present invention (chemical names and preparation methods thereof are as described in Preparation Examples of the compounds); linezolid (commercially available) and compound 38 (prepared following the process of Patent US2011098471).
# (§4) standard agar dilution method, reference was made to National Committee for Clinical Laboratory Standards. 2006. Methods for Dilution Antimicrobial Susceptibility Tests for Bacteria That Grow Aerobically, Approved Standard Seventh Edition M7-A7.
# [1] = tested on: Enterococcus faecalis (efa); test: In vitro antibacterial activity, standard agar dilution method, efa; settings: clinically separated strains, read-out: Antibiotic Activity MIC efa
# Text: as §1, §2, §3, §4
# [2] = tested on: Enterococcus faecium (efm); test: In vitro antibacterial activity, standard agar dilution method, efm; settings: clinically separated strains, read-out: Antibiotic Activity MIC efm
# Text: as §1, §2, §3, §4
# [3] = tested on: Methicillin-resistant Staphylococcus aureus (MRSA); test: In vitro antibacterial activity, standard agar dilution method, MRSA; settings: clinically separated strains, read-out: Antibiotic Activity MIC MRSA
# Text: as §1, §2, §3, §4
# [4] = tested on: methicillin-sensitive Staphylococcus epidermidis (MSSE); test: In vitro antibacterial activity, standard agar dilution method, MSSE; settings: clinically separated strains, read-out: Antibiotic Activity MIC MSSE
# Text: as §1, §2, §3, §4
# [5] = tested on: methicillin-resistant Staphylococcus epidermidis (MRSE); test: In vitro antibacterial activity, standard agar dilution method, MRSE; settings: clinically separated strains, read-out: Antibiotic Activity MIC MRSE
# Text: as §1, §2, §3, §4
# [6] = tested on: methicillin-sensitive Staphylococcus aureus (MSSA); test: In vitro antibacterial activity, standard agar dilution method, MSSA; settings: clinically separated strains, read-out: Antibiotic Activity MIC MSSA
# Text: as §1, §2, §3, §4
SMILES,Antibiotic Activity MIC Streptococcus pneumoniae (streptococcus pneumoniae) [µg/mL],MIC [1] [µg/mL],MIC [2] [µg/mL],MIC [3] [µg/mL],MIC [4] [µg/mL],MIC [5] [µg/mL],MIC [6] [µg/mL]
"CC(=O)NC[C@H]1CN(c2ccc(N3CCOCC3)c(F)c2)C(=O)O1 [Linezolid, reference compound]",2,2,2,2,2,1,2
Cn1nnnc1N1Cc2ccc(-c3ccc(N4C[C@H](CO)OC4=O)cc3F)cc2C1 [Compound 19],1,2,2,1,0.5,1,1
"CC(=O)NC[C@H]1CN(c2ccc(-c3ccc4nc(-c5nnn(C)n5)cn4c3)c(F)c2)C(=O)O1 [Compound 38, reference compound]",0.5,0.25,0.5,0.5,0.5,0.25,0.5
"CC(=O)NC[C@H]1CN(c2ccc(-c3ccc4c(c3)CN(c3nnn(C)n3)C4)c(F)c2)C(=O)O1 [Compound 2, (S)—N-((3-(3-fluoro-4-(2-(2-methyl-2H-tetrazol-5-yl)isoindolin-5-yl)phenyl)-2-oxo-oxazolidin-5-yl)methyl)acetamide]",0.5,0.5,0.5,0.25,0.5,0.25,0.5

# Further molecules by falling MIC [1], results first:
Antibiotic Activity MIC Streptococcus pneumoniae (streptococcus pneumoniae) [µg/mL],MIC [1] [µg/mL],MIC [2] [µg/mL],MIC [3] [µg/mL],MIC [4] [µg/mL],MIC [5] [µg/mL],MIC [6] [µg/mL],SMILES
,8,8,2,0.5,0.5,1,O=C1O[C@@H](CO)CN1c1ccc(-c2ccc3c(c2)CN(c2ccn[nH]2)C3)c(F)c1 [Compound 20]
0.25,1,0.5,1,0.5,0.5,1,"Cn1nnc(N2Cc3ccc(-c4ccc(N5C[C@H](CO)OC5=O)cc4F)cc3C2)n1 [Compound 1, (R)-3-(3-fluoro-4-(2-(2-methyl-2H-tetrazol-5-yl)isoindolin-5-yl)phenyl)-5-(hydroxylmethyl)oxazolidin-2-one]"
0.5,0.5,0.5,0.5,0.125,0.25,0.5,"O=C1O[C@@H](CO)CN1c1ccc(-c2ccc3c(c2)CN(c2cnn[nH]2)C3)c(F)c1 [Compound 3, (R)-3-(4-(2-(1H-1,2,3-triazol-5-yl)isoindolin-5-yl)-3-fluorophenyl)-5-(hydroxylmethyl)oxazolidin-2-one]"
0.5,0.25,0.25,0.25,0.125,0.25,0.25,"CC(=O)NC[C@H]1CN(c2ccc(-c3ccc4c(c3)CN(c3cnn[nH]3)C4)c(F)c2)C(=O)O1 [Compound 4, (S)—N-((3-(4-(2-(1H-1,2,3-triazol-5-yl)isoindolin-5-yl)-3-fluorophenyl)-2-oxo-oxazolidin-5-yl)methyl)acetamide]"
